Drawing on patent publication US7829565B2, “Indole derivatives as serotonin reuptake inhibitors” (Merck Patent GmbH, priority 2003, dated 2010), this text covers IC50 for 2 molecules.

Experiment [1] deals with T1, 5-HT1A receptors (Rattus norvegicus, UniProt P19327).
T1 construct: from tissue; host or cells: hippocampus (membranes)
T1 sequence (P19327 1-422): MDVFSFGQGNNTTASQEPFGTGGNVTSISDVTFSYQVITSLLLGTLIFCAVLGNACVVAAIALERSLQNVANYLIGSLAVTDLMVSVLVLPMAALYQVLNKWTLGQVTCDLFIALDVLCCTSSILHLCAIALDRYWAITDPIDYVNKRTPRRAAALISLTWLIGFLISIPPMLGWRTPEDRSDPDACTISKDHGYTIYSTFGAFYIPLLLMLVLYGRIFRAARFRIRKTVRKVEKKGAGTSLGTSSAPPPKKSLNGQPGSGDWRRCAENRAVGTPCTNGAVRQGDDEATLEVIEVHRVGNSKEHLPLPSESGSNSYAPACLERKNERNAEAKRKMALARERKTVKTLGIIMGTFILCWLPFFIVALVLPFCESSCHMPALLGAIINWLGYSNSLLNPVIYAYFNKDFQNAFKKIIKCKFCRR
As to the kind of experiment: 5-HT1A receptor binding test. The source says:
(§1) In particular, they inhibit 5-HT reuptake. […] Due to a 5-HT-agonistic action and 5-HT reuptake inhibition, serotonin remains in the synaptic cleft for longer and the serotonin action is reinforced. Active ingredients having such properties are therefore particularly suitable as antidepressants and anxiolytics. The compounds of the formula I inhibit the binding of tritiated serotonin ligands to hippocampal receptors (Cossery et al., European J. Pharmacol. 140 (1987), 143-155) and synaptosomal serotonin reuptake (Sherman et al., Life Sci. 23 (1978), 1863-1870).
The 5-HT1A-agonistic action can be measured in vitro, for example, with the aid of the (serotonin) binding test, as described by Matzen et al. (J. Med. Chem., 43 (2000), 1149-57), in particular on page 1156 with reference to Eur. J. Pharmacol., 140 (1987), 143-155. In addition, the 5-HT1A-agonistic action can be measured with the aid of the GTPgammaS test described by Newman-Tancredi et al. (Eur. J. Pharmacol. 307 (1996), 107-11).
Many of the compounds synthesised have nanomolar affinity to the 5-HT1A receptors and nanomolar reuptake inhibition of serotonin. • 5-{4-[4-(5-Cyano-2-oxo-2,3-dihydro-1H-indol-3-yl)butyl]piperazin-1-yl}-benzofuran-2-carboxamide

The target in experiment [2] is T2, serotonin reuptake (Rattus norvegicus, UniProt P31652).
T2 construct: synaptosomal serotonin reuptake (Sherman et al., Life Sci. 23 (1978), 1863-1870); from tissue
T2 sequence (P31652 whole entry): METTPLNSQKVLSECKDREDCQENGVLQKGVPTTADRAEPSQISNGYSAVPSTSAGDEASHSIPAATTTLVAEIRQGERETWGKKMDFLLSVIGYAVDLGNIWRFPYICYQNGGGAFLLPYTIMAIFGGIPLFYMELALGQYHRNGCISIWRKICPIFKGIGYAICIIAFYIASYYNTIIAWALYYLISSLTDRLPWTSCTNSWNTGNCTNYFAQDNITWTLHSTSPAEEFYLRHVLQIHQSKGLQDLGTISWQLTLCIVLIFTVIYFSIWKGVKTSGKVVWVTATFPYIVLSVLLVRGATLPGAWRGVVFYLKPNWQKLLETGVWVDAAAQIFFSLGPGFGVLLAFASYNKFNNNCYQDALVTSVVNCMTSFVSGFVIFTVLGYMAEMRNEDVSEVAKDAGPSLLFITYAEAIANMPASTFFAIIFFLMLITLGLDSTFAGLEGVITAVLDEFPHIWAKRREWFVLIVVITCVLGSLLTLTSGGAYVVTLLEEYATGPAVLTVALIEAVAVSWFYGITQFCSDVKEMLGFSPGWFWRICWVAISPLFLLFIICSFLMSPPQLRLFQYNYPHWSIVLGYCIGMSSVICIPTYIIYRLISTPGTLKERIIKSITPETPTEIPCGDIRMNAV
Briefly: serotonin reuptake inhibition (SSRI). It counts as biochemical.
Source text: as §1
For in-vitro determination of 5-HT reuptake inhibition, synaptosomal reuptake inhibition (Wong et al., Neuropsycho-pharmacology 8 (1993), 22-33) and p-chloroamphetamine antagonism (Fuller et al. J. Pharmacol. Exp. Ther. 212 (1980), 115-119) is measured. Serotonin reuptake inhibition can in addition also be investigated with the aid of the Waldmeier method ex vivo in the brain tissue of mice (European J. Pharmacol. 1977, 46, 387-92), and by microdialysis, which is described by DiChiara (Trends in Pharmacol. Sci., 11 (1990), 116-121). To this end, a physiological solution is perfused through a microdialysis container implanted into a rat brain. During this perfusion, the solution takes up the neurotransmitters liberated in the brain and is subsequently analysed. […]

Regarding `N#Cc1ccc2c(c1)C(CCCCN1CCN(c3ccc4oc(C(N)=O)cc4c3)CC1)C(=O)N2` (stereo not shown) [5-{4-[4-(5-cyano-2-oxo-2,3-dihydro-1H-indol-3-yl)butyl]-piperazin-1-yl}benzofuran-2-carboxamide], the values for the half-inhibitory concentration (IC50) in experiment [1] and in experiment [2] were 1.7 nM and 2.9 nM, respectively.
The matching figures for `N#Cc1cc2c(CCCCN3CCN(c4ccc5oc(C(N)=O)cc5c4)CC3)c[nH]c2cc1O` [5-{4-[4-(5-cyano-6-hydroxy-1H-indol-3-yl)butyl]piperazin-1-yl}-benzofuran-2-carboxamide]: 18 nM and 2.7 nM.
